The values that follow come from patent publication US20260070945A1, “MACROCYCLIC IMMUNOMODULATORS” (Bristol-Myers Squibb Company, priority 2022, published 2026).

The structures appear in SMILES notation. *1 amine or outer side, *2 acyl side, *3 side chain or, on linkers, in order; H or OH if unused. Where a SMILES comes first, the peptide text is derived from it. Bridges are numbered along the chain shown (N, C = ends). [ ]: non-standard residue; d: D form. The star is where a group is joined. ξ: configuration not given here. Phe(3-CF3) = N[C@@H](Cc1cccc(C(F)(F)F)c1)C(=O)O; Phe(4-CF3) = N[C@@H](Cc1ccc(C(F)(F)F)cc1)C(=O)O; Phe(4-COOH) = N[C@@H](Cc1ccc(C(=O)O)cc1)C(=O)O; Bip = N[C@@H](Cc1ccc(-c2ccccc2)cc1)C(=O)O; Phe(3-Cl) = N[C@@H](Cc1cccc(Cl)c1)C(=O)O; Phe(3-F) = N[C@@H](Cc1cccc(F)c1)C(=O)O; Phe(3-Me) = Cc1cccc(C[C@H](N)C(=O)O)c1; γGlu = O=C(O)[C@H](CCC(=O)[*:2])N[*:1]; Abu(3S-NH2) = C[C@H](N)[C@H](N)C(=O)O; NH(CH2)12COOH = O=C(O)CCCCCCCCCCCCN*; NMeAEEA = CN(CCOCCOCC(=O)[*:2])[*:1]; Val(3-OH) = CC(C)(O)[C@H](N)C(=O)O; hArg = N=C(N)NCCCC[C@H](N)C(=O)O; 4Pal = N[C@@H](Cc1ccncc1)C(=O)O; Cha = N[C@@H](CC1CCCCC1)C(=O)O; Cit = NC(=O)NCCC[C@H](N)C(=O)O; Ile(3ξ) = CCC(C)[C@H](N)C(=O)O; Thr(3ξ) = CC(O)[C@H](N)C(=O)O; Carboxymethyl = O=C(O)C*; NMeA = CN[C@@H](C)C(=O)O; Orn = NCCC[C@H](N)C(=O)O; Pra = C#CC[C@H](N)C(=O)O; Aun = NCCCCCCCCCCC(=O)O; Dab = NCC[C@H](N)C(=O)O; Dap = NC[C@H](N)C(=O)O; AEEA = NCCOCCOCC(=O)O

Usually IC50 stands for the concentration that gives 50% inhibition.

One assay deals with T1, PD-1/PD-L1 interaction (PE-labeled human PD-L1-Ig binding to Jurkat cell line over-expressing human PD-1) (Homo sapiens, UniProt Q15116).
T1 construct: expressed in transfected cells; host or cells: Jurkat
T1 sequence (Q15116 25-288): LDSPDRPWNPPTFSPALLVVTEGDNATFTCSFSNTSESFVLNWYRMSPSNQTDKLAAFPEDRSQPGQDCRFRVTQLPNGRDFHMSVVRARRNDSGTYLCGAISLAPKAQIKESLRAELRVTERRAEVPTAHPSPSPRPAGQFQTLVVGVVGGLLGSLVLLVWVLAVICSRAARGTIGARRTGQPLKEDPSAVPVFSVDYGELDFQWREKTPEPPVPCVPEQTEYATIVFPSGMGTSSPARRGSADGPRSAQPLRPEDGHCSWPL
In words: Jurkat-PD-1 Cell Binding High-Content Screening Assay (CBA). To be noted: Jurkat-hPD-1 cells, PE-labeled PD-L1-Ig 20 nM final; read-out: Jurkat HPD1 PDL1 IC50. In short, it runs like this: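 High-content imaging read-out of PE-PD-L1-Ig binding (20 nM final, 1 h) to Jurkat-hPD-1 cells, after 2 h compound exposure at 37 °C in DMEM with 10% FCS. Nuclei counterstained with Hoechst 33342 after paraformaldehyde fixation.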
Regarding `Cc1cccc(C[C@@H]2NC(=O)[C@H](CC(=O)O)NC(=O)[C@H](Cc3ccc(OCC(=O)O)cc3)NC(=O)[C@H](CN)NC(=O)CSC[C@@H](C(=O)N(C)CCOCCOCC(=O)NCCCCCCCCCCC(=O)O)NC(=O)[C@H](CCCN)NC(=O)[C@H](C(C)C)NC(=O)[C@H](CC3CCCCC3)NC(=O)[C@H](CCN)NC(=O)[C@@H](CC(C)C)NC(=O)[C@H](C)N(C)C(=O)[C@H](C(C)C)NC(=O)[C@H](Cc3ccc(-c4ccccc4)cc3)NC(=O)[C@H](C(C)C)NC2=O)c1` [Example 2414] ({CH2CO}-[Dap]Y(Carboxymethyl)D[Phe(3-Me)]V[Bip]V[NMeA][dL][Dab][Cha]V[Orn]C[NMeAEEA][Aun]-OH; thioether N-14), the IC50 amounted to 45 nM.

Consider `CC(C)C[C@H]1NC(=O)[C@H](C)N(C)C(=O)[C@H](CCCNC(N)=O)NC(=O)[C@H](Cc2ccc(-c3ccccc3)cc2)NC(=O)[C@H](Cc2ccc(C(=O)O)cc2)NC(=O)[C@H](Cc2cccc(C(F)(F)F)c2)NC(=O)[C@H](CC(=O)O)NC(=O)[C@H](Cc2ccc(OCC(=O)O)cc2)NC(=O)[C@H](Cc2ccc(C(=O)O)cc2)NC(=O)CSC[C@@H](C(=O)N[C@@H](CCN)C(=O)NCCOCCOCC(=O)N[C@@H](CCC(=O)NCCOCCOCC(=O)NCCCCCCCCCCCCC(=O)O)C(=O)O)NC(=O)[C@H](CC(=O)O)NC(=O)[C@H](C(C)(C)O)NC(=O)[C@H](CC2CCCCC2)NC(=O)[C@H](CCN)NC1=O` [Example 1186] ({CH2CO}-[Phe(4-COOH)]Y(Carboxymethyl)D[Phe(3-CF3)][Phe(4-COOH)][Bip][Cit][NMeA][dL][Dab][Cha][Val(3-OH)]DC[Dab][AEEA][γGlu][AEEA]-{NH(CH2)12COOH}; thioether N-14), for which the IC50 is 108 nM.

As to `CC(C)C[C@@H]1NC(=O)[C@H](Cc2c[nH]c3ccccc23)NC(=O)[C@H](CC(=O)O)NC(=O)[C@H](Cc2ccncc2)NC(=O)[C@H](Cc2ccc(OCC(=O)O)cc2)NC(=O)CSC[C@@H](C(=O)N[C@@H](CCCNC(=N)N)C(=O)NCCOCCOCC(=O)NCCCCCCCCCCC(=O)O)NC(=O)[C@H](CO)NC(=O)[C@H](C(C)C)NC(=O)[C@H](CC2CCCCC2)NC(=O)[C@H](CCN)NC(=O)[C@@H](CC(C)C)NC(=O)[C@H](C)N(C)C(=O)[C@H](C(C)C)NC(=O)[C@H](Cc2ccc(-c3ccccc3)cc2)NC1=O` [Example 1092] ({CH2CO}-Y(Carboxymethyl)[4Pal]DWL[Bip]V[NMeA][dL][Dab][Cha]VSCR[AEEA][Aun]-OH; thioether N-14), the IC50 is 11.3 nM.

With `C#CC[C@H](NC(=O)[C@H](CCN)NC(=O)[C@@H]1CSCC(=O)N[C@@H]([C@@H](C)O)C(=O)N[C@@H](Cc2ccc(OCC(=O)O)cc2)C(=O)N[C@@H](CC(=O)O)C(=O)N[C@@H](Cc2cccc(Cl)c2)C(=O)N[C@@H](Cc2ccc(C(=O)O)cc2)C(=O)N[C@@H](Cc2ccc(-c3ccccc3)cc2)C(=O)N[C@@H](Cc2ccc(OCC(=O)O)cc2)C(=O)N(C)[C@@H](C)C(=O)N[C@H](CC(C)C)C(=O)N[C@@H](CCN)C(=O)N[C@@H](CC2CCCCC2)C(=O)N[C@@H](C(C)C)C(=O)N[C@@H]([C@@H](C)O)C(=O)N1)C(=O)NCCCCCCCCCCC(=O)O` [Example 1239] ({CH2CO}-TY(Carboxymethyl)D[Phe(3-Cl)][Phe(4-COOH)][Bip]Y(Carboxymethyl)[NMeA][dL][Dab][Cha]VTC[Dab][Pra][Aun]-OH; thioether N-14), the IC50 came out at 10.5 nM.

As to `CC(C)C[C@H]1NC(=O)[C@H](C)N(C)C(=O)[C@H](C(C)C)NC(=O)[C@H](Cc2ccc(-c3ccccc3)cc2)NC(=O)[C@H](C(C)C)NC(=O)[C@H](Cc2c[nH]c3ccccc23)NC(=O)[C@H](CC(=O)O)NC(=O)[C@H](Cc2ccc(OCC(=O)O)cc2)NC(=O)[C@H](CCCCNC(=N)N)NC(=O)CSC[C@@H](C(=O)NCC(=O)NCCOCCOCC(=O)N[C@@H](CCCN)C(=O)NCCCCCCCCCCC(=O)O)NC(=O)[C@H](CO)NC(=O)[C@H](C(C)C)NC(=O)[C@H](CC2CCCCC2)NC(=O)[C@H](CCN)NC1=O` [Example 2084] ({CH2CO}-[hArg]Y(Carboxymethyl)DWV[Bip]V[NMeA][dL][Dab][Cha]VSCG[AEEA][Orn][Aun]-OH; thioether N-14), the IC50 is 9.5 nM.

`CC(C)C[C@H]1NC(=O)[C@H](C)N(C)C(=O)[C@H](CCC(N)=O)NC(=O)[C@H](Cc2ccc(-c3ccccc3)cc2)NC(=O)[C@H](Cc2ccc(C(=O)O)cc2)NC(=O)[C@H](Cc2cccc(C(F)(F)F)c2)NC(=O)[C@H](CC(=O)O)NC(=O)[C@H](Cc2ccc(OCC(=O)O)cc2)NC(=O)[C@H]([C@H](C)N)NC(=O)CSC[C@@H](C(=O)N[C@@H](CCN)C(=O)NCCOCCOCC(=O)N[C@@H](CCC(=O)NCCOCCOCC(=O)NCCCCCCCCCCCCC(=O)O)C(=O)O)NC(=O)[C@H](Cc2c[nH]cn2)NC(=O)[C@H](C(C)(C)O)NC(=O)[C@H](CC2CCCCC2)NC(=O)[C@H](CCN)NC1=O` [Example 1203] ({CH2CO}-[Abu(3S-NH2)]Y(Carboxymethyl)D[Phe(3-CF3)][Phe(4-COOH)][Bip]Q[NMeA][dL][Dab][Cha][Val(3-OH)]HC[Dab][AEEA][γGlu][AEEA]-{NH(CH2)12COOH}; thioether N-14): the IC50 came to 21.5 nM.

Take `Cc1cccc(C[C@@H]2NC(=O)[C@H](CC(=O)O)NC(=O)[C@H](Cc3ccc(OCC(=O)O)cc3)NC(=O)[C@H](CN)NC(=O)CSC[C@@H](C(=O)N[C@@H](CCN)C(=O)NCCCCCCCCCCC(=O)O)NC(=O)[C@H](CO)NC(=O)[C@H](C(C)C)NC(=O)[C@H](CC3CCCCC3)NC(=O)[C@H](CCN)NC(=O)[C@@H](CC(C)C)NC(=O)[C@H](C)N(C)C(=O)[C@H](Cc3ccc(OCC(=O)O)cc3)NC(=O)[C@H](Cc3ccc(-c4ccccc4)cc3)NC(=O)[C@H](C(C)C)NC2=O)c1` [Example 1261] ({CH2CO}-[Dap]Y(Carboxymethyl)D[Phe(3-Me)]V[Bip]Y(Carboxymethyl)[NMeA][dL][Dab][Cha]VSC[Dab][Aun]-OH; thioether N-14): the IC50 worked out at 16.6 nM.

For the molecule `Cc1cccc(C[C@@H]2NC(=O)[C@H](CC(=O)O)NC(=O)[C@H](Cc3ccc(OCC(=O)O)cc3)NC(=O)[C@H](CCCNC(=N)N)NC(=O)CSC[C@@H](C(=O)N[C@@H](CCCCN)C(=O)NCCCCCCCCCCC(=O)O)NC(=O)[C@H]([C@@H](C)O)NC(=O)[C@H](C(C)C)NC(=O)[C@H](CC3CCCCC3)NC(=O)[C@H](CCN)NC(=O)[C@@H](CC(C)C)NC(=O)[C@H](C)N(C)C(=O)[C@H](Cc3ccc(OCC(=O)O)cc3)NC(=O)[C@H](Cc3ccc(-c4ccccc4)cc3)NC(=O)[C@H](Cc3ccc(C(=O)O)cc3)NC2=O)c1` [Example 1225] ({CH2CO}-RY(Carboxymethyl)D[Phe(3-Me)][Phe(4-COOH)][Bip]Y(Carboxymethyl)[NMeA][dL][Dab][Cha]VTCK[Aun]-OH; thioether N-14), the IC50 is 48.7 nM.

With `CC(=O)NCCCC[C@@H]1NC(=O)[C@H](Cc2ccc(-c3ccccc3)cc2)NC(=O)[C@H](CC(C)C)NC(=O)[C@H](Cc2cccc(C)c2)NC(=O)[C@H](CC(=O)O)NC(=O)[C@H](Cc2ccc(C(=O)O)cc2)NC(=O)[C@H](Cc2ccc(OCC(=O)O)cc2)NC(=O)CSC[C@@H](C(=O)NCCCCCCCCCCC(=O)O)NC(=O)[C@H](CCCNC(N)=O)NC(=O)[C@H](C(C)C)NC(=O)[C@H](CC2CCCCC2)NC(=O)[C@H](CCN)NC(=O)[C@@H](CC(C)C)NC(=O)[C@H](C)N(C)C1=O` [Example 2247] ({CH2CO}-Y(Carboxymethyl)[Phe(4-COOH)]D[Phe(3-Me)]L[Bip]K(Ac)[NMeA][dL][Dab][Cha]V[Cit]C[Aun]-OH; thioether N-14), the half-inhibitory concentration (IC50) is 4.9 nM.

Staying with this assay, now noted: PE-labeled PD-L1-Ig 20 nM final, Jurkat-hPD-1 cells; read-out: Jurkat HPD1 PDL1 IC50.
In the case of `Cc1cccc(C[C@@H]2NC(=O)[C@H](CC(=O)O)NC(=O)[C@H](Cc3ccc(OCC(=O)O)cc3)NC(=O)[C@H](C(C)O)NC(=O)CSC[C@@H](C(=O)N[C@@H](CCN)C(=O)NCCOCCOCC(=O)NCCCCCCCCCCC(=O)O)NC(=O)[C@H](CO)NC(=O)[C@H](C(C)(C)O)NC(=O)[C@H](CC3CCCCC3)NC(=O)[C@H](CCN)NC(=O)[C@@H](CC(C)C)NC(=O)[C@H](C)N(C)C(=O)[C@H](Cc3ccc(OCC(=O)O)cc3)NC(=O)[C@H](Cc3ccc(-c4ccccc4)cc3)NC(=O)[C@H](Cc3ccc(OCC(=O)O)cc3)NC2=O)c1` (stereo partly drawn) [Example 2469] ({CH2CO}-[Thr(3ξ)]Y(Carboxymethyl)D[Phe(3-Me)]Y(Carboxymethyl)[Bip]Y(Carboxymethyl)[NMeA][dL][Dab][Cha][Val(3-OH)]SC[Dab][AEEA][Aun]-OH; thioether N-14), the IC50 was determined as 25.3 nM.

For the molecule `CC(=O)NCCCC[C@@H]1NC(=O)[C@H](C(C)(C)O)NC(=O)[C@H](CC2CCCCC2)NC(=O)[C@H](CCN)NC(=O)[C@@H](CC(C)C)NC(=O)[C@H](C)N(C)C(=O)[C@H](CCCNC(=N)N)NC(=O)[C@H](Cc2ccc(-c3ccccc3)cc2)NC(=O)[C@H](Cc2ccc(C(=O)O)cc2)NC(=O)[C@H](Cc2cccc(C(F)(F)F)c2)NC(=O)[C@H](CC(=O)O)NC(=O)[C@H](Cc2ccc(OCC(=O)O)cc2)NC(=O)[C@H](Cc2ccc(OCC(=O)O)cc2)NC(=O)CSC[C@@H](C(=O)N[C@@H](CCN)C(=O)NCCOCCOCC(=O)NCCCCCCCCCCCCC(=O)O)NC1=O` [Example 2639] ({CH2CO}-Y(Carboxymethyl)Y(Carboxymethyl)D[Phe(3-CF3)][Phe(4-COOH)][Bip]R[NMeA][dL][Dab][Cha][Val(3-OH)]K(Ac)C[Dab][AEEA]-{NH(CH2)12COOH}; thioether N-14), the IC50 came out at 16.8 nM.

For the molecule `CCC(C)[C@@H]1NC(=O)[C@H](Cc2ccc(-c3ccccc3)cc2)NC(=O)[C@H](Cc2ccc(C(F)(F)F)cc2)NC(=O)[C@H](Cc2cccc(F)c2)NC(=O)[C@H](CC(=O)O)NC(=O)[C@H](Cc2ccc(OCC(=O)O)cc2)NC(=O)[C@H](Cc2cnc[nH]2)NC(=O)CSC[C@@H](C(=O)N[C@@H](CCN)C(=O)NCCOCCOCC(=O)NCCCCCCCCCCC(=O)O)NC(=O)[C@H](CCC(=O)O)NC(=O)[C@H](C(C)C)NC(=O)[C@H](CC2CCCCC2)NC(=O)[C@H](CCN)NC(=O)[C@@H](CC(C)C)NC(=O)[C@H](C)N(C)C1=O` (stereo partly drawn) [Example 2592] ({CH2CO}-HY(Carboxymethyl)D[Phe(3-F)][Phe(4-CF3)][Bip][Ile(3ξ)][NMeA][dL][Dab][Cha]VEC[Dab][AEEA][Aun]-OH; thioether N-14), the IC50 came to 89.6 nM.
